The conditions of data set [1]: 13-membered ring.
For data set [2], the target named is T1, CFTR-mediated chloride transport in human intestinal epithelial enteroid cells (Homo sapiens, UniProt P13569). Nature of the data set: Membrane potential dye, Enteroid Assay B. The conditions noted are these: for Ent. B Max Activity: % of chloride transport of triple combination control: 1 μM (14S)-8-[3-(2-{Dispiro[2.0.2.1]heptan-7-yl}ethoxy)-1H-pyrazol-1-yl]-12,12-dimethyl-...-2,2,4-trione, 3 μM tezacaftor, 300 nM acute ivacaftor; for EC50: enteroid cells, 18-24 hours incubation, acute 10 μM forskolin and 300 nM ivacaftor, read-out: Ent. B EC50. The format is cell-based. As for the experimental part:
(§1) Base medium (ADF+++) consisted of Advanced DMEM/Ham's F12, 2 mM Glutamax, 10 mM HEPES, […] penicillin/streptomycin.
(§2) Intestinal enteroid maintenance medium (IEMM) consisted of ADF+++, 1×B27 supplement, 1×N2 supplement, 1.25 mM N-acetyl cysteine, 10 mM Nicotinamide, 50 ng/mL hEGF, 10 nM Gastrin, 1 μg/mL hR-spondin-1, 100 ng/mL hNoggin, TGF-b type 1 inhibitor A-83-01, 100 μg/mL Primocin, 10 μM P38 MAPK inhibitor SB202190.
(§3) Bath 1 Buffer consisted of 1 mM MgCl2, 160 mM NaCl, 4.5 mM KCl, 10 mM HEPES, 10 mM Glucose, 2 mM CaCl2).
(§4) Chloride Free Buffer consisted of 1 mM Magnesium Gluconate, 2 mM Calcium Gluconate, 4.5 mM Potassium Gluconate, 160 mM Sodium Gluconate, 10 mM HEPES, 10 mM Glucose.
(§5) BathI Dye Solution consisted of Bath 1 Buffer, 0.04% Pluronic F127, 20 μM Methyl Oxonol, 30 μM CaCCinh-A01, 30 μM Chicago Sky Blue.
(§6) Chloride Free Dye Solution consisted of Chloride Free Buffer, 0.04% Pluronic F127, 20 μM Methyl Oxonol, 30 μM CaCCinh-A01, 30 μM Chicago Sky Blue.
(§7) Chloride Free Dye Stimulation Solution consisted of Chloride Free Dye Solution, 10 μM forskolin, 100 μM IBMX, and 300 nM Compound III.
(§8) Human intestinal epithelial enteroid cells were obtained from the Hubrecht Institute for Developmental Biology and Stem Cell Research, Utrecht, The Netherlands and expanded in T-Flasks as previously described (Dekkers J F, Wiegerinck C L, de Jonge H R, Bronsveld I, Janssens H M, de Winter-de Groot K M, Brandsma A M, de Jong N W M, Bijvelds M J C, Scholte B J, Nieuwenhuis E E S, van den Brink S, Clevers H, van der Ent C K, Middendorp S and M Beekman J M. A functional CFTR assay using primary cystic fibrosis intestinal organoids. Nat Med. 2013 July; 19(7):939-45.).
(§9) Cells were recovered in cell recovery solution, collected by centrifugation at 650 rpm for 5 minutes at 4° C., resuspended in TrypLE and incubated for 5 minutes at 37° C. Cells were then collected by centrifugation at 650 rpm for 5 minutes at 4° C. and resuspended in IEMM containing 10 μM ROCK inhibitor (RI). The cell suspension was passed through a 40 μm cell strainer and resuspended at 1×10^6 cells/mL in IEMM containing 10 μM RI. Cells were seeded at 5000 cells/well into multi-well plates and incubated for overnight at 37° C., 95% humidity and 5% CO2 prior to assay.
(§10) Enteroid cells were incubated with test compound in IEMM for 18-24 hours at 37° C., 95% humidity, and 5% C02. […] Briefly, cells were washed 5 times in Bath 1 Buffer. Bath 1 Dye Solution was added and the cells were incubated for 25 minutes at room temperature. Following dye incubation, cells were washed 3 times in Chloride Free Dye Solution. Chloride transport was initiated by addition of Chloride Free Dye Stimulation Solution and the fluorescence signal was read for 15 minutes. […] Chloride transport was then expressed as a percentage of the chloride transport following treatment with 1 μM (14S)-8-[3-(2-{Dispiro[2.0.2.1]heptan-7-yl}ethoxy)-1H-pyrazol-1-yl]-12,12-dimethyl-2λ^6-thia-3,9,11,18,23-pentaazatetracyclo[17.3.1.111,14.05,10]tetracosa-1(22),5,7,9,19(23),20-hexaene-2,2,4-trione, 3 μM (R)-1-(2,2-difluorobenzo[d][1,3]dioxol-5-yl)-N-(1-(2,3-dihydroxypropyl)-6-fluoro-2-(1-hydroxy-2-methylpropan-2-yl)-1H-indol-5-yl)cyclopropanecarboxamide and 300 nM acute N-[2,4-bis(1,1-dimethylethyl)-5-hydroxyphenyl]-1,4-dihydro-4-oxoquinoline-3-carboxamide triple combination control (% Activity).

Data set [3] deals with T1, CFTR-mediated chloride transport in human intestinal epithelial enteroid cells. Nature of the data set: Membrane potential dye, Enteroid Assay A. The settings on record: for Ent. A Max Activity: % of chloride transport of triple combination control: 3 μM (S)-N-((6-aminopyridin-2-yl)sulfonyl)-6-(3-fluoro-5-isobutoxyphenyl)-2-(2,2,4-trimethylpyrrolidin-1-yl)nicotinamide, 3 μM tezacaftor, 300 nM acute ivacaftor; for EC50: enteroid cells, 18-24 hours incubation, acute 10 μM forskolin and 300 nM ivacaftor, read-out: Ent. A EC50. The data set is classed as cell-based. As for the experimental part: as §1, §2, §3, §4, §5, §6, §7, §8, §9
as §10, with “95% humidity” for “95% humidity,”, “was added,” for “was added”, “with 3” for “with 1”, “μM (S)—N-((6-aminopyridin-2-yl)sulfonyl)-6-(3-fluoro-5-isobutoxyphenyl)-2-(2,2,4-trimethylpyrrolidin-1-yl)nicotinamide,” for “μM (14S)-8-[3-(2-{Dispiro[2.0.2.1]heptan-7-yl}ethoxy)-1H-pyrazol-1-yl]-12,12-dimethyl-2λ^6-thia-3,9,11,18,23-pentaazatetracyclo[17.3.1.111,14.05,10]tetracosa-1(22),5,7,9,19(23),20-hexaene-2,2,4-trione,”

Read-outs that look alike come from different tables or passages of the source.

T1 sequence (P13569 with tags, fused parts or gaps DEL508-508): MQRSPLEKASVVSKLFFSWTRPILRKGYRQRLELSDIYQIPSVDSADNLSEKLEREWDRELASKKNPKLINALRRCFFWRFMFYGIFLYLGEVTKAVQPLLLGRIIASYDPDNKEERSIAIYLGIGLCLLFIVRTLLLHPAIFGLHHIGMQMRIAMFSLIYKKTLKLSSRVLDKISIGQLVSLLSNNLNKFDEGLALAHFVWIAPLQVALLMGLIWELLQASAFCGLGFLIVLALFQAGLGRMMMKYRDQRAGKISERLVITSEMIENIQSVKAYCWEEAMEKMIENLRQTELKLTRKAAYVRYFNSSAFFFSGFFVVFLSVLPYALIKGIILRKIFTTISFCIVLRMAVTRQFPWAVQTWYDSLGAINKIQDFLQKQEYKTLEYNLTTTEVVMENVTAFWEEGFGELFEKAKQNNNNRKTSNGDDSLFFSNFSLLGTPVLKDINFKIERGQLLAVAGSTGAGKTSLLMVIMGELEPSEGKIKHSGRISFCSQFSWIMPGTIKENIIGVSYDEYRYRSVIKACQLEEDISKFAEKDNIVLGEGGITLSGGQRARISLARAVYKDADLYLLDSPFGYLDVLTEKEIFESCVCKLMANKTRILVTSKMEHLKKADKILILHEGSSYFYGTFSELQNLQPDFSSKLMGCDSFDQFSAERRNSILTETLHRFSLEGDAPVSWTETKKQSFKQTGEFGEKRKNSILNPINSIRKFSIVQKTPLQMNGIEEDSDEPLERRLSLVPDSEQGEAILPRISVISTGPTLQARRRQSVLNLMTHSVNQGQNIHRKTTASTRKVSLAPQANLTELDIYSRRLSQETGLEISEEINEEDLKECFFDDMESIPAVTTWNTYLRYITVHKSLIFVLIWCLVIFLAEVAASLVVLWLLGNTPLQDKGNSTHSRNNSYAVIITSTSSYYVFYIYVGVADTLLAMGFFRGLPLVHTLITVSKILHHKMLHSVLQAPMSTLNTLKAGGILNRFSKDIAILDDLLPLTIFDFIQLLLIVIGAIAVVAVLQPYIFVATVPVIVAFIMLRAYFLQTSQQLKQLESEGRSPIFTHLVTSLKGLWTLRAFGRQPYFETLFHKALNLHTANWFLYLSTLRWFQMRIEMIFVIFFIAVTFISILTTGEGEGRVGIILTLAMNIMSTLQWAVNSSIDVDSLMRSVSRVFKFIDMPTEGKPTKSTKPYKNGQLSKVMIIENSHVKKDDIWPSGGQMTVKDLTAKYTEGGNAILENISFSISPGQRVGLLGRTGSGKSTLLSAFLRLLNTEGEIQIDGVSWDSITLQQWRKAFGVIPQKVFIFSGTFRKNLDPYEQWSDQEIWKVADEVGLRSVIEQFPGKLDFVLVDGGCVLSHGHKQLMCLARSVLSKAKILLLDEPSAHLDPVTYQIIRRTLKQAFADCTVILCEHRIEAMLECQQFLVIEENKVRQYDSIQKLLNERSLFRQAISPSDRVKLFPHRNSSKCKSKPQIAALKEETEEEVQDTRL

For `Cc1cccc(C)c1-c1nc2nc(c1F)CC[C@@H](CC(C)C)N(C1CC3(CC3)C1)C(=O)c1cccc(c1)S(=O)(=O)N2` [Compound 4, (11S)-6-(2,6-Dimethylphenyl)-7-fluoro-11-isobutyl-2,2-dioxo-12-spiro[2.3]hexan-5-yl-2 λ6-thia-3,5,12,19-tetrazatricyclo[12.3.1.14,8]nonadeca-1(18),4(19),5,7,14,16-hexaen-13-one], the ring closure, yield after HPLC in data set [1] (from Cc1cccc(C)c1-c1nc(NS(=O)(=O)c2cccc(C(=O)O)c2)nc(CC[C@@H](CC(C)C)NC2CC3(CC3)C2)c1F, amide bond, HATU/DIEA, NMP, 100.9 mM, 25.0 °C, 20.0 h) stood at 30%. For the same compound, in data set [2], the “Ent. B Max Activity” value is reported as “+++ (+++ is >60%)” and the EC50 is under 1 µM.
In data set [1] (from Cc1cccc(C)c1-c1cc(CC[C@@H](CC(C)C)NC2CC3(CC3)C2)nc(NS(=O)(=O)c2cccc(C(=O)O)c2)n1, amide bond, HATU/DIEA, NMP, 126.6 mM, 25.0 °C, 2.0 h), `Cc1cccc(C)c1-c1cc2nc(n1)NS(=O)(=O)c1cccc(c1)C(=O)N(C1CC3(CC3)C1)[C@H](CC(C)C)CC2` [Compound 6, (11S)-6-(2,6-Dimethylphenyl)-11-isobutyl-2,2-dioxo-12-spiro[2.3]hexan-5-yl-2 λ6-thia-3,5,12,19-tetrazatricyclo[12.3.1.14,8]nonadeca-1(18),4(19),5,7,14,16-hexaen-13-one] had a ring closure, yield after HPLC of 50%. In addition, in data set [2], the “Ent. B Max Activity” value is given as “+++ (+++ is >60%)” and the EC50 is under 1 µM.
In the case of `Cc1cccc(C)c1-c1cc2nc(n1)NS(=O)(=O)c1cccc(c1)C(=O)N(C1CC3(CC3)C1)[C@H](CC1(C(F)(F)F)CC1)CC2` [Compound 7, (11S)-6-(2,6-Dimethylphenyl)-2,2-dioxo-12-spiro[2.3]hexan-5-yl-11-[[1-(trifluoromethyl)cyclopropyl]methyl]-2 λ6-thia-3,5,12,19-tetrazatricyclo [12.3.1.14,8]nonadeca-1(18),4(19),5,7,14,16-hexaen-13-one], the ring closure, yield after HPLC in data set [1] (from Cc1cccc(C)c1-c1cc(CC[C@@H](CC2(C(F)(F)F)CC2)NC2CC3(CC3)C2)nc(NS(=O)(=O)c2cccc(C(=O)O)c2)n1, amide bond, HATU/DIEA, NMP, 26.8 mM, 25.0 °C, 16.0 h) worked out at 22%. Moreover, in data set [2], the “Ent. B Max Activity” value is given as “+++ (+++ is >60%)” and the EC50 was under 1 µM.
The compound `Cc1cccc(C)c1-c1cc2nc(n1)NS(=O)(=O)c1cccc(c1)C(=O)N(C1CC3(CC3)C1)CCC2C` (stereo not shown) [Compound 11, 6-(2,6-dimethylphenyl)-9-methyl-2,2-dioxo-12-spiro[2.3]hexan-5-yl-2λ^6-thia-3,5,12,19-tetrazatricyclo[12.3.1.14,8]nonadeca-1(18),4(19),5,7,14,16-hexaen-13-one] returned a ring closure, yield after HPLC in data set [1] (from Cc1cccc(C)c1-c1cc(C(C)CCNC2CC3(CC3)C2)nc(NS(=O)(=O)c2cccc(C(=O)O)c2)n1, amide bond, HATU/DIEA, NMP, 20.1 mM, 25.0 °C, 16.0 h) of 86%. Besides, in data set [2], the “Ent. B Max Activity” value is reported as “+++ (+++ is >60%)” and the EC50 lay within 1 to 3 µM.
With `Cc1cccc(C)c1-c1nc2nc(c1C)NCCOC(=O)c1cccc(c1)S(=O)(=O)N2` [Compound 24, 6-(2,6-dimethylphenyl)-7-methyl-12-oxa-2 λ6-thia-3,5,9,19-tetraazatricyclo[12.3.1.14,8]nonadeca-1(18),4,6,8(19),14,16-hexaene-2,2,13-trione], in data set [1] (from Cc1cccc(C)c1-c1nc(NS(=O)(=O)c2cccc(C(=O)O)c2)nc(OCCN)c1C, ester bond, HATU/DIEA, DMF, 50.7 mM, 25.0 °C), the ring closure, yield after HPLC turned out to be 23%. In data set [2], the “Ent. B Max Activity” value is “+ (+ is <30%)”.
For the compound `Cc1cccc(C)c1-c1cc2nc(n1)NS(=O)(=O)c1cccc(c1)C(=O)OCC(CCC1(C(F)(F)F)CC1)N2CCC1CCOCC1` (stereo not shown) [Compound 26, 6-(2,6-dimethylphenyl)-2,2-dioxo-9-(2-tetrahydropyran-4-ylethyl)-10-[2-[1-(trifluoromethyl)cyclopropyl]ethyl]-12-oxa-2λ6-thia-3,5,9,19-tetrazatricyclo[12.3.1.14,8]nonadeca-1(18),4(19),5,7,14,16-hexaen-13-one], in data set [3], the “Ent. A Max Activity” value was “+++ (+++ is >60%)” and the EC50 was 1 to 3 µM.
`Cc1cccc(C)c1-c1cc2nc(n1)NS(=O)(=O)c1ccccc1C(=O)O[C@H](c1ccc(C(C)(C)C)cc1)[C@@H](C)N2` [Compound 27]: the “Ent. A Max Activity” value in data set [3] was “+ (+ is <30%)”.
As for `Cc1cccc(C)c1-c1cc2nc(n1)NS(=O)(=O)c1cccc(c1)C(=O)OCC[C@H](c1ccccc1)N2` [Compound 28], in data set [3], the “Ent. A Max Activity” value was “++ (++ is 30-60%)” and the EC50 lay in the range of 1 to 3 µM.
Turning to `Cc1cccc(C)c1-c1cc2nc(n1)NS(=O)(=O)c1cccc(c1)C(=O)OCC(CCC1(C(F)(F)F)CC1)N2CCC(C)C` (stereo not shown) [Compound 30], in data set [3], the “Ent. A Max Activity” value is “+ (+ is <30%)”.
On to `Cc1cccc(C)c1-c1cc2nc(n1)NS(=O)(=O)c1cccc(c1)C(=O)OCC(CCC1(C(F)(F)F)CC1)N2Cc1ccccc1` (stereo not shown) [Compound 31], for which, in data set [3], the “Ent. A Max Activity” value is “++ (++ is 30-60%)” and the EC50 fell in the range of 1 to 3 µM.
For the compound `Cc1cccc(C)c1-c1cc2nc(n1)NS(=O)(=O)c1cccc(c1)C(=O)OCC[C@@H](c1ccccc1)N2` [Compound 33], in data set [3], the “Ent. A Max Activity” value is “+++ (+++ is >60%)” and the EC50 lay in the range of 1 to 3 µM.
For `Cc1cccc(C)c1-c1cc2nc(n1)NS(=O)(=O)c1cccc(c1)C(=O)OCC(C)(C)CN2` [Compound 34], in data set [3], the “Ent. A Max Activity” value is reported as “+ (+ is <30%)”.
Same read-out and setting: as for `Cc1cccc(C)c1-c1cc2nc(n1)NS(=O)(=O)c1cccc(c1)C(=O)O[C@@H](C)[C@@H](CC(C)C)N2` [Compound 36], the entry is “+ (+ is <30%)”.
For the compound `Cc1cccc(C)c1-c1cc2nc(n1)NS(=O)(=O)c1cccc(c1)C(=O)NC(CC(C)C)CN2` (stereo not shown) [Compound 37, 6-(2,6-Dimethylphenyl)-11-isobutyl-2,2-dioxo-2 λ6-thia-3,5,9,12,19-pentazatricyclo[12.3.1.14,8]nonadeca-1(18),4(19),5,7,14,16-hexaen-13-one], the “Ent. A Max Activity” value in data set [3] was “+ (+ is <30%)”. This compound also gave a ring closure, yield after HPLC in data set [1] (from Cc1cccc(C)c1-c1cc(NCC(N)CC(C)C)nc(NS(=O)(=O)c2cccc(C(=O)O)c2)n1, amide bond, HATU/Et3N, DMF, 50.6 mM, 0.5 h) of 67%.

The term EC50 denotes the concentration needed to bring the measured effect to its halfway point.

Source of the values: patent US12612416B2, “Modulators of cystic fibrosis transmembrane conductance regulator” (VERTEX PHARMACEUTICALS INCORPORATED, priority 2020, dated 2026).
